Test results published in patent US4563461A, “Selective method for blocking 5HT2 receptors” (Eli Lilly and Company, priority 1983, dated 1986).
Where two headings read alike, the source gives them in different places.

How the values were obtained:
alpha receptors [1] = target: T1, alpha receptors (Rattus norvegicus, UniProt P23944); experiment: Antagonism of norepinephrine contraction in isolated rat aorta (apparent dissociation constant, dose ratio); assay type: cell-based; conditions: for Dose-Ratio (norepinephrine ED50 with test compound / control ED50): 10^-5 molar test compound
T1 construct: their external jugular veins and thoracic aortas dissected free of connective tissue; from tissue; host or cells: thoracic aorta of male Wistar rats
T1 sequence (P23944 1-561): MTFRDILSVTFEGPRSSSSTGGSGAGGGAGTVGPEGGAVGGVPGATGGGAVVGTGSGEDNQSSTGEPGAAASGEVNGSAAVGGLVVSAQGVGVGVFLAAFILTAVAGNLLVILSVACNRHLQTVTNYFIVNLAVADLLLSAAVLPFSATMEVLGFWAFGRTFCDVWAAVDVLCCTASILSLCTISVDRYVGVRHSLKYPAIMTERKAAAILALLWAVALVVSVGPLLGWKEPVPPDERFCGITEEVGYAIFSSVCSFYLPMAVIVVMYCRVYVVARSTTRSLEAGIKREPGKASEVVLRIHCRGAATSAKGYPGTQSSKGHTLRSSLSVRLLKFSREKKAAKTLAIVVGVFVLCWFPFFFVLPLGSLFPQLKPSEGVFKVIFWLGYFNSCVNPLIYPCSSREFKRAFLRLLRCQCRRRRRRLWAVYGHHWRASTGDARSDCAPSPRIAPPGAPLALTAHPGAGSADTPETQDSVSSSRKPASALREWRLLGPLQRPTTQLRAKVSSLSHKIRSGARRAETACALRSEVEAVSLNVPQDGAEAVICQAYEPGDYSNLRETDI
Experimental: (§1) The apparent dissociation constants (KB) are a measure of affinity for 5HT2 and alpha receptors and are expressed as the negative logarithm and are determined according to the following protocol.
(§2) Male Wistar rats (150-300 gram weight) were killed and their external jugular veins and thoracic aortas dissected free of connective tissue, cannulated in situ and placed in a modified Krebs' bicarbonate buffer in a suitable tissue bath. Two L-shaped 30-gauge stainless-steel hypodermic needles were inserted in each cannula and the dissected vessels gently pushed onto the needles. One needle was attached with thread to a stationary glass rod and the other to the transducer. [The procedure employed was that described by Hooker, Calkins and Fleisch, Blood Vessels, 14, 1, (1977) for use with circular smooth muscle preparations.]
(§3) The modified Krebs' bicarbonate buffer had the following makeup: (concentrations in millimoles): sodium chloride, 118.2; potassium chloride, 4.6; calcium chloride dihydrate, 1.6; potassium dihydrogenphosphate, 1.2; magnesium sulfate, 1.2; dextrose, 10.0; sodium bicarbonate, 24.8; and water q.s. to 1000 g. The tissue baths were maintained at 37° C. and were aerated with 95% oxygen-5% CO2. An initial optimum resting force of 1 and 4 g. was applied to the jugular vein and aorta, respectively. Isometric contractions were recorded as changes in grams of force on a Beckman Dynograph with Statham UC-3 transducers and microscale accessory attachment. Tissues were allowed to equilibrate 1 to 2 hours before exposure to drugs. Control responses to serotonin in the jugular vein and to norepinephrine in the aorta were obtained. The vessels were then incubated with appropriate concentrations of antagonist for one hour. Responses to serotonin or to norepinephrine were then repeated in the presence of the antagonist. Contraction to serotonin was evaluated in the jugular vein since this tissue produces marked responses to serotonin in the absence of alpha receptors--see Cohen and Wiley, J. Pharm. Exp. Ther., 205, 400 (1978). Alpha receptor antagonist activity was evaluated in the aorta.
(§4) Apparent antagonist dissociation constants were determined for each concentration of antagonist according to the following equation: [formula] wherein [B] is the concentration of the antagonist and the dose ratio is the ED50 of the agonist in the presence of the antagonist divided by the control ED50.
The in vitro rat aorta preparation described above was used.

5HT2 receptors [2] = target: T2, 5HT2 receptors (Rattus norvegicus, UniProt P14842); experiment: Antagonism of serotonin contraction in isolated rat jugular vein (apparent dissociation constant); assay type: cell-based; conditions: for Ratio KB alpha / KB 5HT2: rat aorta KB over rat jugular vein KB; for Kb: rat jugular vein, agonist serotonin, antagonist incubated one hour, n in parentheses, read-out: 5HT2 -Log KB ± S.E. (converted)
T2 construct: their external jugular veins and thoracic aortas dissected free of connective tissue; from tissue; host or cells: external jugular vein of male Wistar rats
Experimental: as §1, §2, §3, §4

[3] = Blood pressure in spontaneously hypertensive rats (SHR); assay type: in vivo, rat; conditions: intraperitoneal, 10 mg./kg.
Experimental: In spontaneously hypertensive rats (SHR), in which blockade of alpha receptors but not 5HT2 receptors lowers blood pressure, there was no effect upon intraperitoneal administration of 1-isopropyl-6-methyl-8β-(1-methyl-2-hydroxy)propoxycarbonyl-5R-ergoline at a 10 mg./kg. dose.

5HT2 receptors [4] = target: T2, 5HT2 receptors; assay type: in vivo; conditions: pithed SHR, i.p.
Experimental: SHR were anesthesized with halothane, femoral arterial and venous catheters implanted as before and the trachea cannulated. Each rat was pithed by passing a steel rod through the right orbit and down the entire length of the spinal column. The steel rod remained in place for the duration of the experiment. Immediately after pithing, the rats were ventilated with room air via a rodent respirator which eliminated any anesthetic effects. […] The response was recorded and the blood pressure allowed to recover to control levels. […] The test drug was prepared fresh daily and administered by the intraperitoneal route.

alpha receptors [5] = experiment: Shift of methoxamine pressor response in pithed SHR; assay type: in vivo, rat; conditions: i.p., 10 mg./kg.
Experimental: SHR were anesthesized with halothane, femoral arterial and venous catheters implanted as before and the trachea cannulated. Each rat was pithed by passing a steel rod through the right orbit and down the entire length of the spinal column. The steel rod remained in place for the duration of the experiment. Immediately after pithing, the rats were ventilated with room air via a rodent respirator which eliminated any anesthetic effects. An equilibration period of 15 minutes was observed prior to control measurements and administration of drugs or vehicle i.p. Increasing doses of serotonin or methoxamine were injected i.v. 15 minutes after the equilibration period. The response was recorded and the blood pressure allowed to recover to control levels. […] The test drug was prepared fresh daily and administered by the intraperitoneal route. The compound shifted the serotonin response 22 and 480 fold at 0.1 and 3 mg./kg. dosages whereas at a 10 mg./kg. dose there was no shift in the response to methoxamine, an alpha agonist.

[6] = rat aorta, agonist norepinephrine, antagonist incubated one hour, n in parentheses, read-out: alpha -Log KB ± S.E. (converted)

T2 sequence (P14842 whole entry): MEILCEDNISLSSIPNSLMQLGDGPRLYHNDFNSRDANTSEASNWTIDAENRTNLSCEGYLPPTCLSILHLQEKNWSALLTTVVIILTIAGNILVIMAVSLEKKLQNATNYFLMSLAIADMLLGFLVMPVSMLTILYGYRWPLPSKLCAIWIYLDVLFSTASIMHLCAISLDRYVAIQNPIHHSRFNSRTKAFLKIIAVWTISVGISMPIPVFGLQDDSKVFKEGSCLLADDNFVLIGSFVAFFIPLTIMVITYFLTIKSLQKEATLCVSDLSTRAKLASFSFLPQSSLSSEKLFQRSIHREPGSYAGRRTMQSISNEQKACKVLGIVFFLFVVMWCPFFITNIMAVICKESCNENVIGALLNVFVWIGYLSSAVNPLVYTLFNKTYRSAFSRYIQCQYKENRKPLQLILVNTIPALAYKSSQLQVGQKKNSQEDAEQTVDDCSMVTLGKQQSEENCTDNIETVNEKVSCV

Structure (SMILES)	Dose-Ratio (norepinephrine ED50 with test compound / control ED50) (alpha receptors [1]; rat aorta)	Ratio KB alpha / KB 5HT2 (5HT2 receptors [2])	Kb (5HT2 receptors [2]) [nM]	Kb (alpha receptors [1]) [nM]	also measured
C=CCn1cc2c3c(cccc31)[C@H]1C[C@@H](C(=O)OCCO)CN(C)[C@@H]1C2 [1-allyl-6-methyl-8β-(2-hydroxy)ethoxycarbonyl-5R-ergoline]	2.4	–	–	–	–
CC(O)C(C)OC(=O)[C@@H]1C[C@@H]2c3cccc4c3c(cn4C(C)C)C[C@H]2N(C)C1 (stereo partly drawn) [1-isopropyl-6-methyl-8β-(1-methyl-2-hydroxy)propoxycarbonyl-5R-ergoline]	3.6	300,000	0.0537	13800	Effect on blood pressure [3]: no effect; Shift of the serotonin response (5HT2 receptors [4]; 0.1 mg./kg.): 22 fold; Shift of the serotonin response (5HT2 receptors [4]; 3 mg./kg.): 480 fold; Shift in the response to methoxamine (alpha receptors [5]): no shift
CC(O)COC(=O)[C@@H]1C[C@@H]2c3cccc4c3c(cn4C(C)C)C[C@H]2N(C)C1 (stereo partly drawn) [1-isopropyl-6-methyl-8β-(2-hydroxy)propoxycarbonyl-5R-ergoline]	1.0	–	–	–	–
CNCC12CCC(c3ccccc31)c1ccccc12 [Benzoctamine]	–	16	15.8	251	–
O=C(c1ccc(F)cc1)C1CCN(CCn2c(=O)[nH]c3ccccc3c2=O)CC1 [Ketanserin, reference compound]	–	–	–	–	Kb (alpha receptors [1]; [6]): 12.6 nM
Cc1cc(CCN2CCN(c3cccc(Cl)c3)CC2)n[nH]1 [Mepiprazole]	–	0.4	12.6	–	Kb (alpha receptors [1]; [6]): 5.01 nM
O=c1n(CCCN2CCN(c3cccc(Cl)c3)CC2)nc2ccccn12 [Trazodone, reference compound]	–	–	–	158	–
